Laboratory results taken from patent US6297282A, “Substituted derivatives of benzosulphonamides as inhibitors of the enzyme cyclooxygenase II” (Nycomed Austria GmbH, priority 1997, dated 2001).

Assays:
[1] = biological target: T1, cyclooxygenase-II (human COX-2) (Homo sapiens, UniProt P35354); experiment: Human COX-2 Test (LPS-stimulated human monocytoid cell line, arachidonic acid, ELISA of cyclooxygenase products); format: cell-based; conditions: for IC50: LPS-stimulated human monocytoid cell line, half an hour incubation, then arachidonic acid 15 minutes, 37° C.; for COX I/COX II (selectivity): ratio of COX I IC50 to COX II IC50
T1 construct: endogenous in cells
T1 sequence (P35354 18-604): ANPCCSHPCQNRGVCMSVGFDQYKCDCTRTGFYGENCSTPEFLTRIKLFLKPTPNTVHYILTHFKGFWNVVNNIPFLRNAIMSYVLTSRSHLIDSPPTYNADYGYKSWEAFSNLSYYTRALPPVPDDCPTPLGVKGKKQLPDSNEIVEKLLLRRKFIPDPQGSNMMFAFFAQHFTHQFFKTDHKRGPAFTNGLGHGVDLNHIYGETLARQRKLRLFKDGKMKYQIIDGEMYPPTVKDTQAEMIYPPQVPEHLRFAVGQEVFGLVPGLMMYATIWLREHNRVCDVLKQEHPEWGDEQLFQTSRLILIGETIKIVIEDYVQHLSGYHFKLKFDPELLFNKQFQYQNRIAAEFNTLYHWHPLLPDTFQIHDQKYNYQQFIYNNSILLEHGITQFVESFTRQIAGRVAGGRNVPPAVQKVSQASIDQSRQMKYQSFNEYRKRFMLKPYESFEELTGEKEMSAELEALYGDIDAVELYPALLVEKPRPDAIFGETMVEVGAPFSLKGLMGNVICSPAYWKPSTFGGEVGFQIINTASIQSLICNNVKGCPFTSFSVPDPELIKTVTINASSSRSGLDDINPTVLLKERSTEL
Procedure: Cells of a human monocytoid cell line were stimulated with lipopolysaccharide (LPS) (incubator at 37° C., 5% CO2 -enriched atmosphere and almost 100% atmospheric humidity), in order to induce COX-2. Following this, the culture medium (RPMI 1640, enriched with 10% FCS, 2 mM glutamine, 10000 U/ml penicillin, […] and 1 mM pyruvate) is refreshed and potential inhibitor substances of cyclooxygenase-II, dissolved in culture medium or in phosphate-buffered saline or in some other solvent compatible with cell cultures, are added and then incubated for half an hour as described above. Arachidonic acid is added by pipette and incubation is carried out for a further 15 minutes. The culture supernatant of the cells is removed and its content of products of cyclooxygenase metabolism (e.g. Prostaglandin E2, Prostaglandin F1a, Thromboxane B2) is measured by ELISA.

[2] = biological target: T2, cyclooxygenase-I (human COX-1) (Homo sapiens, UniProt P23219); experiment: Human COX-1 Test (inhibition of arachidonic acid-induced aggregation of washed human thrombocytes); format: cell-based; conditions: arachidonic acid 10 μM final concentration, 37° C., test substance added 2 minutes before
T2 construct: arachidonic acid-induced aggregation of washed human thrombocytes; endogenous in cells; host or cells: washed human thrombocytes (blood platelets)
T2 sequence (P23219 24-599): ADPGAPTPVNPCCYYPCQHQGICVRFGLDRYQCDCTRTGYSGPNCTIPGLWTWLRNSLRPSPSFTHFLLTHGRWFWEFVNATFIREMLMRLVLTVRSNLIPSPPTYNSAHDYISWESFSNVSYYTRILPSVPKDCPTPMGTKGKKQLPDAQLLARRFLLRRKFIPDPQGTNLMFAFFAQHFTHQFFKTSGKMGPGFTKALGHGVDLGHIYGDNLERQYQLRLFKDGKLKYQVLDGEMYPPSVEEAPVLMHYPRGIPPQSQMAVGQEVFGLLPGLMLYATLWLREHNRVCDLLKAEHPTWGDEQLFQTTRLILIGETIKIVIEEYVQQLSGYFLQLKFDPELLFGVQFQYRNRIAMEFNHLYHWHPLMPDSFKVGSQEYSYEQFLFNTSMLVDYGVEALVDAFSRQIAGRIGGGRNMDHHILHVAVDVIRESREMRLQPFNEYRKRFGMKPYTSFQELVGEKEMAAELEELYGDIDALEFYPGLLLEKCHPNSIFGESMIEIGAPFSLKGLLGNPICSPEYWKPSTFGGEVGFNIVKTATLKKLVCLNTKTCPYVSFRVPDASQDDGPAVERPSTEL
Procedure: Inhibition of the arachidonic acid-induced aggregation of washed human thrombocytes was used as a test system for an estimation of the inhibition of cyclooxygenase-I. A thrombocyte suspension at 37° C. was added to the test substances 2 minutes before addition of the arachidonic acid (10 μM final concentration) and the aggregation course was recorded via an aggregometer. With the assistance of a concentration-effect curve, the concentration of test substance was determined at which 50% aggregation was measured (IC50).

IC50 [1] [µM] | COX I/COX II (selectivity) [1] | IC50 [2] [µM] | SMILES
0.1 | 250 | 25 | CS(=O)(=O)Nc1ccc(S(N)(=O)=O)c(Cl)c1Sc1ccc(Cl)cc1Cl [Example 1, 3-(2,4-Dichlorophenylthio)-2-chloro-4-methylsulphonylamino-benzosulphonamide]
0.1 | 200 | 20 | C=CS(=O)(=O)Nc1ccc(S(N)(=O)=O)cc1Sc1ccc(Cl)cc1Cl [Example 6, 3-(2,4-dichlorophenylthio)-4-vinylsulphonyl-amino-benzosulphonamide]
